Reference: ChEMBL document CHEMBL5512637, “Development of Membrane-Targeting Fluorescent 2-Phenyl-1H-phenanthro[9,10-d]imidazole-Antimicrobial Peptide Mimic Conjugates against Methicillin-Resistant Staphylococcus aureus” (J Med Chem, 2024)
Calls of active or inactive are those of the source. The rule behind the calls is not given here.

What was measured:
Staphylococcus aureus [1] = assay: Antibacterial activity against methicillin-resistant Staphylococcus aureus clinical isolate M-4 infected in KM mouse assessed as reduction in skin inflammation at 10 mg/kg, sc measured after 24 hrs by H and E staining based analysis; format: functional, organism-based
Staphylococcus aureus [2] = assay: Bactericidal activity against Staphylococcus aureus ATCC 29213 assessed as fold increase in fluorescence intensity at MIC incubated for 180 mins relative to control; format: functional; details: 3 h
Staphylococcus aureus [3] = assay: Disruption of cell membrane in methicillin-resistant Staphylococcus aureus clinical isolate M-4 assessed as wrinkled cell membrane at 8 times MIC incubated for 1 hr by SEM analysis; format: functional, organism-based
Staphylococcus aureus [4] = assay: Antibacterial activity against Staphylococcus aureus ATCC 29213 at 1 ug/ml in absence of exogenous DNA; format: functional, organism-based; details: dose 1.0 µg/ml
[5] = Toxicity in KM mouse assessed as change in RBC count at 20 mg/kg, sc measured after 24 hrs; format: organism-based, Erythrocyte; details: in vivo
[6] = Cytotoxicity against human L02 cells assessed as cell survival at 32 ug/ml by MTT assay relative to control; format: toxicity, cell-based; details: at 32 µg/mL, read-out: Survival
Staphylococcus aureus [7] = assay: Disruption of cell membrane in methicillin-resistant Staphylococcus aureus clinical isolate M-4 assessed as cell membrane rupture at 8 times MIC incubated for 1 hr by SEM analysis; format: functional, organism-based
[8] = Toxicity in KM mouse assessed as red swollen appearance of skin at administration site at 40 to 80 mg/kg, sc measured for 24 hrs; format: organism-based; details: in vivo, dose 40-80 mg/kg
[9] = Toxicity in KM mouse assessed as histological abnormality in spleen at 20 mg/kg, sc measured after 24 hrs by H and E staining based analysis; format: organism-based; details: in vivo
Staphylococcus aureus [10] = assay: Disruption of cell membrane in methicillin-resistant Staphylococcus aureus clinical isolate M-4 assessed as rough cell membrane at 8 times MIC incubated for 1 hr by SEM analysis; format: functional, organism-based
[11] = Toxicity in KM mouse assessed as change in hemoglobin level at 20 mg/kg, sc measured after 24 hrs; format: organism-based; details: in vivo
Staphylococcus aureus [12] = assay: Disruption of cell membrane in methicillin-resistant Staphylococcus aureus clinical isolate M-4 assessed as increase in intracellular ROS level incubated for 1 hr by DCFH-DA dye based analysis; format: functional, organism-based; details: dose 1-32 µg/ml
Staphylococcus aureus [13] = assay: Induction of resistance development in Staphylococcus aureus ATCC 29213 assessed as fold increase in MIC at MIC measured after 17 passages relative to control; format: functional
[14] = Toxicity in KM mouse infected with methicillin-resistant Staphylococcus aureus clinical isolate M-4 assessed as histopathological abnormality in heart at 5 to 10 mg/kg, sc measured after 24 hrs by H and E staining based analysis; format: organism-based; details: in vivo, dose 5-10 mg/kg
Staphylococcus aureus [15] = assay: Antibacterial activity against methicillin-resistant Staphylococcus aureus clinical isolate M-7 incubated for 16 to 18 hrs CLSI based by microbroth dilution assay; format: functional; details: time 16-18 hrs
[16] = Toxicity in KM mouse assessed as change in mean corpuscular volume at 20 mg/kg, sc measured after 24 hrs; format: organism-based; details: in vivo
[17] = Toxicity in KM mouse assessed as change in WBC count at 20 mg/kg, sc measured after 24 hrs; format: organism-based; details: in vivo
Staphylococcus aureus [18] = assay: Antibacterial activity against methicillin-resistant Staphylococcus aureus clinical isolate M-4 incubated for 16 to 18 hrs CLSI based by microbroth dilution assay; format: functional; details: time 16-18 hrs
[19] = Toxicity in KM mouse assessed as change in creatinine level at 20 mg/kg, sc measured after 24 hrs; format: organism-based; details: in vivo
Staphylococcus aureus [20] = assay: Disruption of cell membrane in methicillin-resistant Staphylococcus aureus clinical isolate M-4 assessed as protein leakage at 1 to 8 times MIC incubated for 4 hrs by BCA assay; format: functional, organism-based
Staphylococcus aureus [21] = assay: Antibacterial activity against Staphylococcus aureus ATCC 29213 incubated for 16 to 18 hrs CLSI based by microbroth dilution assay; format: functional; details: time 16-18 hrs
[22] = Toxicity in KM mouse assessed as animal abnormality at 5 to 80 mg/kg, sc measured for 24 hrs; format: organism-based; details: in vivo, dose 5-80 mg/kg
Staphylococcus aureus [23] = assay: Antibacterial activity against methicillin-resistant Staphylococcus aureus clinical isolate M-9 incubated for 16 to 18 hrs CLSI based by microbroth dilution assay; format: functional; details: time 16-18 hrs
[24] = Toxicity in KM mouse assessed as change in hematocrit level at 20 mg/kg, sc measured after 24 hrs; format: organism-based; details: in vivo
Staphylococcus aureus [25] = assay: Antibacterial activity against methicillin-resistant Staphylococcus aureus clinical isolate M-4 upto 128 ug/ml incubated for 16 to 18 hrs in presence of phosphatidylglycerol by broth dilution method; format: functional, organism-based; details: dose <= 128.0 µg/ml, time 16-18 hrs
[26] = Toxicity in KM mouse assessed as histological abnormality in lungs at 20 mg/kg, sc measured after 24 hrs by H and E staining based analysis; format: organism-based; details: in vivo
Staphylococcus aureus [27] = assay: Antibacterial activity against methicillin-resistant Staphylococcus aureus clinical isolate M-4 upto 128 ug/ml incubated for 16 to 18 hrs in presence of cardiolipin by broth dilution method; format: functional, organism-based; details: dose <= 128.0 µg/ml, time 16-18 hrs
Staphylococcus aureus [28] = assay: Antibacterial activity against methicillin-resistant Staphylococcus aureus clinical isolate M-3 incubated for 16 to 18 hrs CLSI based by microbroth dilution assay; format: functional; details: time 16-18 hrs
Staphylococcus aureus [29] = assay: Antibacterial activity against Staphylococcus aureus ATCC 29213 at 1 ug/ml in presence of exogenous DNA; format: functional, organism-based; details: dose 1.0 µg/ml
Staphylococcus aureus [30] = assay: Antibacterial activity against methicillin-resistant Staphylococcus aureus clinical isolate M-10 incubated for 16 to 18 hrs CLSI based by microbroth dilution assay; format: functional; details: time 16-18 hrs
Staphylococcus aureus [31] = assay: Bactericidal activity against methicillin-resistant Staphylococcus aureus clinical isolate M-4 at 8 times MIC incubated for 4 hrs by time kill assay relative to control; format: functional
Staphylococcus aureus [32] = assay: Antibacterial activity against methicillin-resistant Staphylococcus aureus clinical isolate M-4 infected in KM mouse assessed as decrease in abscesses in subcutaneous tissue at 5 to 10 mg/kg, sc measured after 24 hrs by H and E staining based analysis; format: functional, organism-based; details: dose 5-10 mg/kg
Staphylococcus aureus [33] = assay: Disruption of cell membrane in methicillin-resistant Staphylococcus aureus clinical isolate M-4 assessed as increase in red fluorescence incubated for 2 hrs by SYTO9/PI staining based flow cytometry; format: functional, organism-based; details: dose 4-64 µg/ml
[34] = Hemolytic activity in sheep erythrocytes incubated for 1 hr by absorbance based assay; format: toxicity, cell-based, Ovis aries, Erythrocyte
[35] = Binding affinity to phosphatidylglycerol (unknown origin) assessed as dissociation constant by ITC analysis
Staphylococcus aureus [36] = assay: Bactericidal activity against methicillin-resistant Staphylococcus aureus clinical isolate M-4 at 4 times MIC incubated for 6 hrs by time kill assay relative to control; format: functional
Staphylococcus aureus [37] = assay: Bactericidal activity against Staphylococcus aureus ATCC 29213 at 8 times MIC incubated for 1 hr by time kill assay relative to control; format: functional
Staphylococcus aureus [38] = assay: Disruption of cell membrane in methicillin-resistant Staphylococcus aureus clinical isolate M-4 assessed as increase in fluorescence intensity measured for 30 mins by DiSC3(5) dye based analysis; format: functional, organism-based; details: dose 8-32 µg/ml
Staphylococcus aureus [39] = assay: Antibacterial activity against methicillin-resistant Staphylococcus aureus clinical isolate M-6 incubated for 16 to 18 hrs CLSI based by microbroth dilution assay; format: functional; details: time 16-18 hrs
[40] = Toxicity in KM mouse assessed as change in urea level at 20 mg/kg, sc measured after 24 hrs; format: organism-based; details: in vivo

In the case of CCCCCNC(=O)C[N+](C)(C)CCCCn1c(-c2ccc(N(C)C)cc2)nc2c3ccccc3c3ccccc3c21.[Br-], the Activity (Staphylococcus aureus [1]) is reported as “Active”, the “fold change (FC)” value (Staphylococcus aureus [2]) is reported as roughly 1.9 and the Activity (Staphylococcus aureus [3]) is reported as “Active”. For the same molecule, the Activity (Staphylococcus aureus [4]) was “Active”, the Activity [5] was “Non-Toxic” and the viability at 32 ug/ml [6] was greater than 72.2%. The Activity (Staphylococcus aureus [7]) was “Active”, the Activity [8] was “Toxic” and the Activity [9] was “Non-Toxic”. For the same molecule, the Activity (Staphylococcus aureus [10]) was “Active”, the Activity [11] was “Non-Toxic” and the Activity (Staphylococcus aureus [12]) was “Dose-Dependent Effect”. For the same molecule, the fold change (FC) (Staphylococcus aureus [13]) was 128, the Activity [14] was “Non-Toxic” and the MIC (Staphylococcus aureus [15]) was 0.5 µg/mL. The Activity [16] was “Non-Toxic”, the Activity [17] was “Non-Toxic” and the MIC (Staphylococcus aureus [18]) was 0.5 µg/mL. For the same molecule, the Activity [19] was “Non-Toxic”, the Activity (Staphylococcus aureus [20]) was “Active” and the MIC (Staphylococcus aureus [21]) was 1 µg/mL. For the same molecule, the Activity [22] was “Non-Toxic”, the MIC (Staphylococcus aureus [23]) was 0.5 µg/mL and the Activity [24] was “Non-Toxic”. For the same molecule, the Activity (Staphylococcus aureus [25]) was “inactive”, the Activity [26] was “Non-Toxic” and the Activity (Staphylococcus aureus [27]) was “Active”. For the same molecule, the MIC (Staphylococcus aureus [28]) was 1 µg/mL, the Activity (Staphylococcus aureus [29]) was “Active” and the MIC (Staphylococcus aureus [30]) was 1 µg/mL. The Activity (Staphylococcus aureus [31]) was 100%, the Activity (Staphylococcus aureus [32]) was “Active” and the Activity (Staphylococcus aureus [33]) was “Dose-Dependent Effect”. For the same molecule, the HC50 at 1 h [34] was 859 µg/mL, the Kd [35] was 39.8 µM and the Activity (Staphylococcus aureus [36]) was 100%. The Activity (Staphylococcus aureus [37]) was 100%, the Activity (Staphylococcus aureus [38]) was “Dose-Dependent Effect” and the MIC (Staphylococcus aureus [39]) was 0.5 µg/mL. For the same molecule, the Activity [40] was “Non-Toxic”.
